Source: US7739055B2, “Methods and systems for generating and evaluating peptides” (priority 2005, dated 2010)
In brackets after ≈: the same amount, converted by molar mass. Like-named read-outs stand apart in the source and are kept apart here. Where a SMILES comes first, the peptide text is derived from it.

Experiments:
[1] = test system: Smith Diffuse strain of Staphylococcus aureus
[2] = test system: Sterne strain of Bacillus anthracis
[3] = first concentration that prohibits growth by OD at 24 hours, Table 1

Row | Compound | MIC E. coli (Escherichia coli; 24 h) [µg/mL] | MIC B. cereus (B. cereus; 24 h) [µg/mL] | HC50, hemolytic concentration at which the peptides lyse 50% of human red blood cells (human red blood cells) | MIC S. aureus ([1]; Smith Diffuse strain of) [µg/mL] | MIC B. anthracis [2] | MIC E. coli (Escherichia coli; [3]) | MIC S. aureus ([1]; Smith Diffuse strain, Table 1) | MIC B. cereus (B. cereus; [3]) | MIC B. cereus (B. cereus) | MIC S. aureus [1]
1 | CC(C)C[C@H](NC(=O)[C@H](CCCCN)NC(=O)[C@H](Cc1ccccc1)NC(=O)[C@@H](NC(=O)[C@@H](NC(=O)CNC(=O)[C@H](CC(C)C)NC(=O)[C@@H](N)Cc1ccccc1)C(C)C)C(C)C)C(=O)N[C@@H](C)C(=O)N[C@@H](CO)C(=O)N[C@@H](CCCCN)C(=O)N[C@H](C(=O)N[C@@H](Cc1ccccc1)C(=O)N1CCC[C@H]1C(=O)N[C@@H](C)C(=O)N[C@H](C(=O)N[C@@H](Cc1ccccc1)C(=O)NCC(=O)N[C@@H](CCCCN)C(=O)N[C@H](C(=O)O)C(C)C)C(C)C)C(C)C [Peptide 28] (H-FLGVVFKLASKVFPAVFGKV-OH; N-terminus and C-terminus assumed) | 64 (≈ 29.7 µM) | 16 (≈ 7.43 µM) | 42 µg/mL | 8 (≈ 3.71 µM) | 16 µg/mL (≈ 7.43 µM) | – | – | – | – | –
2 | CC[C@H](C)[C@H](NC(=O)[C@H](CC(C)C)NC(=O)[C@H](C)NC(=O)[C@@H]1CCCN1C(=O)[C@H](Cc1ccccc1)NC(=O)[C@@H](NC(=O)[C@H](CCCCN)NC(=O)[C@H](CO)NC(=O)[C@H](C)NC(=O)[C@@H](NC(=O)[C@H](CCCNC(=N)N)NC(=O)[C@H](Cc1ccccc1)NC(=O)[C@H](CC(C)C)NC(=O)[C@@H](N)Cc1ccccc1)C(C)C)C(C)C)C(=O)NCC(=O)N[C@@H](CCCCN)C(=O)N[C@@H](Cc1ccccc1)C(=O)N[C@@H](CCCCN)C(=O)N[C@@H](CCCCN)C(=O)N[C@@H](CCCCN)C(=O)O [Peptide 51] (H-FLFRVASKVFPALIGKFKKK-OH; N-terminus and C-terminus assumed) | 64 (≈ 27.5 µM) | 16 (≈ 6.88 µM) | greater than 512 μg/ml | 16 (≈ 6.88 µM) | 16 µg/mL (≈ 6.88 µM) | – | – | – | – | –
3 | CC(C)C[C@H](NC(=O)[C@@H](NC(=O)[C@@H]1CCCN1C(=O)[C@H](CC(C)C)NC(=O)[C@@H](N)Cc1ccccc1)C(C)C)C(=O)N[C@H](C(=O)N[C@@H](CCCCN)C(=O)N[C@H](C(=O)N[C@@H](Cc1ccccc1)C(=O)N[C@@H](CCCNC(=N)N)C(=O)N[C@@H](Cc1ccc(O)cc1)C(=O)N[C@@H](CO)C(=O)N[C@@H](CCCCN)C(=O)N[C@@H](CCCCN)C(=O)N[C@H](C(=O)N[C@@H](C)C(=O)N[C@@H](C)C(=O)NCC(=O)N[C@@H](CS)C(=O)N[C@@H](Cc1ccccc1)C(=O)O)[C@@H](C)O)C(C)C)C(C)C [Shuffled 5] (H-FLPVLVKVFRYSKKTAAGCF-OH; N-terminus and C-terminus assumed) | – | 64 (≈ 28.1 µM) | – | – | + (key: +: MIC greater than 256 ug/mL; ++: MIC greater than 128 ug/mL, not sufficiently soluble to test as 256 ug/mL) | ++ (MIC greater than 128 ug/mL, not sufficiently soluble to test as 256 ug/mL) | + (MIC greater than 256 ug/mL) | – | – | –
4 | ASPTVFRSSVFLSLFVVAKK [Shuffled 43] | – | – | – | – | + (key: +: MIC greater than 256 ug/mL; ++: MIC greater than 128 ug/mL, not sufficiently soluble to test as 256 ug/mL) | + (MIC greater than 256 ug/mL) | + (MIC greater than 256 ug/mL) | + (MIC greater than 256 ug/mL) | – | –
5 | GVSVAGAKKVKVLFVFPFLF [Shuffled 28] | – | – | – | – | + (key: +: MIC greater than 256 ug/mL; ++: MIC greater than 128 ug/mL, not sufficiently soluble to test as 256 ug/mL) | + (MIC greater than 256 ug/mL) | + (MIC greater than 256 ug/mL) | + (MIC greater than 256 ug/mL) | – | –
6 | KVFIATLVVSSFLLAKPPRV [Shuffled 35] | – | – | – | – | + (key: +: MIC greater than 256 ug/mL; ++: MIC greater than 128 ug/mL, not sufficiently soluble to test as 256 ug/mL) | + (MIC greater than 256 ug/mL) | + (MIC greater than 256 ug/mL) | + (MIC greater than 256 ug/mL) | – | –
7 | SVPSVGAVLFFKRAAVMKLI [Shuffled 22] | – | – | – | – | + (key: +: MIC greater than 256 ug/mL; ++: MIC greater than 128 ug/mL, not sufficiently soluble to test as 256 ug/mL) | + (MIC greater than 256 ug/mL) | + (MIC greater than 256 ug/mL) | + (MIC greater than 256 ug/mL) | – | –
8 | THIHMNARLLIRSPFTDPQL [Peptide 10] | – | – | – | – | + (key: +: MIC greater than 256 ug/mL; ++: MIC greater than 128 ug/mL, not sufficiently soluble to test as 256 ug/mL) | + (MIC greater than 256 ug/mL) | – | – | + (key: +: MIC greater than 256 ug/mL; ++: MIC greater than 128 ug/mL, not sufficiently soluble to test as 256 ug/mL) | + (key: +: MIC greater than 256 ug/mL; ++: MIC greater than 128 ug/mL, not sufficiently soluble to test as 256 ug/mL)
